From patent US12496346B2, “Phospholipid-flavagline conjugates and methods of using the same for targeted cancer therapy” (Cellectar Biosciences, Inc., priority 2019, dated 2025)

How the values were obtained:
[1] = In vitro cytotoxicity of CLR 1899; format: cell-based; settings: human, NHDF (normal dermal fibroblasts); read-out: Minimum % viability
Procedure: CLR 1899 was administered to cell lines A375 (human malignant melanoma), A549 (human lung adenocarcinoma), HCT 116 (human colon cancer), and NHDF (normal human dermal fibroblasts).

[2] = In vivo tolerability, body weight changes; design: species or system C57BL/6 mice; settings: intravenous, repeat dosing, 0.5, 1.0 or 2.0 mg/kg
Procedure: To determine whether CLR 1899 is tolerated in vivo, the compound was administered intravenously to healthy C57BL/6 mice at dose levels of 0.5 mg/kg, 1.0 mg/kg, or 2.0 mg/kg, and body weight changes were observed (FIG. 12). […] The in vivo efficacy of CLR 1899 was studied in MCF-7 xenograft model (FIG. 13, 10 mice per dose group). Reduction in tumor volume was recorded.

COC(=O)[C@H]1[C@@H](O)[C@@]2(O)c3c(OC)cc(OCCCCNC(=O)CNC(=O)CNC(=O)CNC(=O)c4ccc(CCCCCCCCCCCCCCCCCCOP(=O)([O-])OCC[N+](C)(C)C)cc4)cc3O[C@@]2(c2ccc(OC)cc2)[C@@H]1c1ccccc1 [CLR 1899]
viability [1]: 41.7%
toxicity or adverse events as measured by changes in weight [2]: no toxicity or adverse events
